Patent US20230127944A1, “BROAD-SPECTRUM CARBAPENEMS” (priority 2019, published 2023)
Values after ≈ are worked out from the molar mass of the structure shown.

Key:
Format in all cases: cell-based
[1] = test system: P. aeruginosa ATCC 27853 (wild-type/QC strain); experiment: broth microdilution MIC assay, P. aeruginosa 27853; details: Pseudomonas aeruginosa, ATCC27853; read-out: MIC, P. aeruginosa 27853
Outline: (§1)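 MIC is the lowest compound concentration with no visible growth after 16-20 h at 37° C. Testing followed CLSI microdilution, with 2-fold compound series in Mueller-Hinton broth supplemented with divalent cations and a starting inoculum of 5×10^5 CFU/mL.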

[2] = test system: S. aureus ATCC 33591 (methicillin-resistant); experiment: broth microdilution MIC assay, S. aureus 33591; details: Staphylococcus aureus, ATCC33591; S. aureus 33591, methicillin-resistant; read-out: MIC, S. aureus 33591
Outline: as §1

[3] = test system: P. aeruginosa ΔmexAB-OprM (an efflux pump knockout); experiment: broth microdilution MIC assay, P. aeruginosa ΔmexAB-OprM; details: Pseudomonas aeruginosa, read-out: MIC, P. aeruginosa ΔmexAB-OprM
Outline: as §1

S. aureus USA 300 = experiment: broth microdilution MIC assay, S. aureus USA300; details: Staphylococcus aureus; S. aureus USA300 (MRSA); read-out: MIC, S. aureus USA300
Outline: as §1

P. aeruginosa Paeβ-17 = experiment: broth microdilution MIC assay, P. aeruginosa Paeβ-17; details: Pseudomonas aeruginosa, read-out: MIC, P. aeruginosa Paeβ-17
Outline: as §1

[4] = test system: P. aeruginosa 35151 (hyper-permeable strain); experiment: broth microdilution MIC assay, P. aeruginosa 35151; details: Pseudomonas aeruginosa, read-out: MIC, P. aeruginosa 35151
Outline: as §1

[5] = test system: E. coli ATCC 25922 (wild-type/QC strain); experiment: broth microdilution MIC assay, E. coli 25922; details: Escherichia coli, ATCC25922; read-out: MIC, E. coli 25922
Outline: as §1

S. aureus USA 600 = experiment: broth microdilution MIC assay, S. aureus USA600; details: Staphylococcus aureus; S. aureus USA600 (MRSA); read-out: MIC, S. aureus USA600
Outline: as §1

C[C@@H](O)[C@H]1C(=O)N2C(C(=O)O)=C(S[C@H]3C[C@H](N[C@@H]4CC[C@H](N)C4)C3)[C@H](C)[C@H]12 [Example 70, (4R,5S,6S)-3-(((1R,3R)-3-(((1R,3S)-3-aminocyclopentyl)amino)cyclobutyl)thio)-6-((R)-1-hydroxyethyl)-4-methyl-7-oxo-1-azabicyclo[3.2.0]hept-2-ene-2-carboxylic acid]
MIC [1]: 8 to 32 µg/mL (≈ 20.2 to 80.9 µM) | MIC [2]: 8 to 32 µg/mL (≈ 20.2 to 80.9 µM) | MIC [3]: 1 to 4 µg/mL (≈ 2.53 to 10.1 µM) | MIC (S. aureus USA 300): 8 to 32 µg/mL (≈ 20.2 to 80.9 µM) | MIC (P. aeruginosa Paeβ-17): 8 to 32 µg/mL (≈ 20.2 to 80.9 µM) | MIC [4]: < 1 µg/mL | MIC [5]: < 1 µg/mL | MIC (S. aureus USA 600): 1 to 4 µg/mL (≈ 2.53 to 10.1 µM)

C[C@@H](O)[C@H]1C(=O)N2C(C(=O)O)=C(S[C@@H]3CC[C@H](NC4CCN(C(=N)N)CC4)C3)[C@H](C)[C@H]12 [Example 49, (4R,5S,6S)-3-(((1R,3S)-3-((1-carbamimidoylpiperidin-4-yl)amino)cyclopentyl)thio)-6-((R)-1-hydroxyethyl)-4-methyl-7-oxo-1-azabicyclo[3.2.0]hept-2-ene-2-carboxylic acid]
MIC [1]: 1 to 4 µg/mL (≈ 2.21 to 8.86 µM) | MIC [2]: 1 to 4 µg/mL (≈ 2.21 to 8.86 µM) | MIC [3]: 1 to 4 µg/mL (≈ 2.21 to 8.86 µM) | MIC (S. aureus USA 300): 1 to 4 µg/mL (≈ 2.21 to 8.86 µM) | MIC (P. aeruginosa Paeβ-17): 8 to 32 µg/mL (≈ 17.7 to 70.9 µM) | MIC [4]: < 1 µg/mL | MIC [5]: < 1 µg/mL | MIC (S. aureus USA 600): 1 to 4 µg/mL (≈ 2.21 to 8.86 µM)

C[C@@H](O)[C@H]1C(=O)N2C(C(=O)O)=C(S[C@H]3C[C@@H](N[C@H]4CC[C@H](N)CC4)C3)[C@H](C)[C@H]12 [Example 61, (4R,5S,6S)-3-(((1S,3S)-3-(((1R,4S)-4-aminocyclohexyl)amino)cyclobutyl)thio)-6-((R)-1-hydroxyethyl)-4-methyl-7-oxo-1-azabicyclo[3.2.0]hept-2-ene-2-carboxylic acid]
MIC [1]: 1 to 4 µg/mL (≈ 2.44 to 9.77 µM) | MIC [2]: 1 to 4 µg/mL (≈ 2.44 to 9.77 µM) | MIC [3]: 1 to 4 µg/mL (≈ 2.44 to 9.77 µM) | MIC (S. aureus USA 300): 1 to 4 µg/mL (≈ 2.44 to 9.77 µM) | MIC (P. aeruginosa Paeβ-17): 8 to 32 µg/mL (≈ 19.5 to 78.1 µM) | MIC [4]: < 1 µg/mL | MIC [5]: < 1 µg/mL | MIC (S. aureus USA 600): 1 to 4 µg/mL (≈ 2.44 to 9.77 µM)

C[C@@H](O)[C@H]1C(=O)N2C(C(=O)O)=C(S[C@H]3C[C@@H](N[C@H]4CC[C@@H](N)C4)C3)[C@H](C)[C@H]12 [Example 76, (4R,5S,6S)-3-(((1R,3S)-3-(((1S,3R)-3-aminocyclopentyl)amino)cyclobutyl)thio)-6-((R)-1-hydroxyethyl)-4-methyl-7-oxo-1-azabicyclo[3.2.0]hept-2-ene-2-carboxylic acid]
MIC [1]: 1 to 4 µg/mL (≈ 2.53 to 10.1 µM) | MIC [2]: 8 to 32 µg/mL (≈ 20.2 to 80.9 µM) | MIC [3]: 8 to 32 µg/mL (≈ 20.2 to 80.9 µM) | MIC (S. aureus USA 300): 1 to 4 µg/mL (≈ 2.53 to 10.1 µM) | MIC (P. aeruginosa Paeβ-17): 1 to 4 µg/mL (≈ 2.53 to 10.1 µM) | MIC [4]: < 1 µg/mL | MIC [5]: < 1 µg/mL | MIC (S. aureus USA 600): 1 to 4 µg/mL (≈ 2.53 to 10.1 µM)

C[C@@H](O)[C@H]1C(=O)N2C(C(=O)O)=C(S[C@@H]3CCN([C@@H]4CC[C@@H](N)C4)C3)[C@H](C)[C@H]12 [Example 35, (4R,5S,6S)-3-(((R)-1-((1R,3R)-3-aminocyclopentyl)pyrrolidin-3-yl)thio)-6-((R)-1-hydroxyethyl)-4-methyl-7-oxo-1-azabicyclo[3.2.0]hept-2-ene-2-carboxylic acid]
MIC [1]: 1 to 4 µg/mL (≈ 2.53 to 10.1 µM) | MIC [2]: 1 to 4 µg/mL (≈ 2.53 to 10.1 µM) | MIC [3]: 1 to 4 µg/mL (≈ 2.53 to 10.1 µM) | MIC (S. aureus USA 300): 1 to 4 µg/mL (≈ 2.53 to 10.1 µM) | MIC (P. aeruginosa Paeβ-17): 8 to 32 µg/mL (≈ 20.2 to 80.9 µM) | MIC [4]: < 1 µg/mL | MIC [5]: < 1 µg/mL | MIC (S. aureus USA 600): 1 to 4 µg/mL (≈ 2.53 to 10.1 µM)

C[C@@H](O)[C@H]1C(=O)N2C(C(=O)O)=C(S[C@@H]3CC[C@@H](NC4CCN(C(=N)N)CC4)C3)[C@H](C)[C@H]12 [Example 55, (4R,5S,6S)-3-(((1R,3R)-3-((1-carbamimidoylpiperidin-4-yl)amino)cyclopentyl)thio)-6-((R)-1-hydroxyethyl)-4-methyl-7-oxo-1-azabicyclo[3.2.0]hept-2-ene-2-carboxylic acid]
MIC [1]: 8 to 32 µg/mL (≈ 17.7 to 70.9 µM) | MIC [2]: 1 to 4 µg/mL (≈ 2.21 to 8.86 µM) | MIC [3]: 1 to 4 µg/mL (≈ 2.21 to 8.86 µM) | MIC (S. aureus USA 300): 1 to 4 µg/mL (≈ 2.21 to 8.86 µM) | MIC (P. aeruginosa Paeβ-17): 8 to 32 µg/mL (≈ 17.7 to 70.9 µM) | MIC [4]: < 1 µg/mL | MIC [5]: < 1 µg/mL | MIC (S. aureus USA 600): 1 to 4 µg/mL (≈ 2.21 to 8.86 µM)
